Legend:
AsPC-1/Cas9 cell line = test: AsPC-1/Cas9 growth inhibition assay; assay type: cell-based, human; settings: Homo sapiens, ASPC1, 120 h, AsPC-1/Cas9 cells, 5 days culture, CellTiter Glo 2.0; read-out: Absolute IC50—Day 5 (nM) AsPC-1 Cas9
Experimental: The human pancreatic cancer cell line AsPC-1 (ATCC Number CRL1682) was infected with Edit-R Lentiviral hCMV-Blast-Cas9 Nuclease Particle (Dharmacon, VCAS10124) in the presence of 8 μg/ml of Hexadimethrine bromide (Sigma, H9268), and after 24 hours it was exposed to 10 μg/ml of Blastcidin S (Thermo, A11139) to remove the uninfected cells, thereby establishing an AsPC-1/Cas9 cell line. The cells were maintenance cultured in a 5% CO2 incubator (37° C.) using RPMI-1640 (FujiFilm-Wako Pure Chemical Industries) containing 10% fetal bovine serum (FBS: SIGMA 173012) and penicillin/streptomycin (FujiFilm-Wako Pure Chemical Industries) (hereunder referred to simply as “culture medium”). After adding 45 μL of AsPC-1/Cas9 cell suspension prepared to 2.0×10^4 cells/mL using culture medium into each well of a 384-well plate (Greiner 781091), the cells were cultured overnight in a 5% CO2 incubator (37° C.). On the following day, 5 μL of the test substance diluted with culture medium was added to each well, and culturing was continued for 5 days in a 5% CO2 incubator (37° C.). Next, 25 μL of CellTiter Glo™ 2.0 (Promega) was added to each well, and the plate contents were mixed for 5 minutes using a plate mixer. The plate was stationed for 10 minutes at room temperature while shielded from light, and then the luminous intensity was measured with an ENVISION™ (Perkin-Elmer). The luminescence value of the wells with addition of test substance was determined as a relative value, with 100% as the luminescence value of the wells with cells but without addition of the test substance, and 0% as the luminescence value of the wells without cells. A plot of test substance concentration against luminescence value % approximated a 4-parameter logistic curve, and the test substance concentration necessary for 50% inhibition of cell growth (Absolute IC50) was calculated, and is shown in Table 4.

[1] = system: Human pancreatic cancer cell line HPAF-II; test: HPAF-II growth inhibition assay (Example 317); assay type: cell-based; settings: 120 h, HPAF-II cells, 5 days culture, CellTiter Glo 2.0 (Example 317, Table 11), read-out: Absolute IC50
Experimental: Cells of the human pancreatic cancer cell line HPAF-II (ATCC Number CRL-1997) were maintenance cultured in a 5% CO2 incubator (37° C.) using RPMI 1640 (FujiFilm-Wako Pure Chemical Industries) containing 10% fetal bovine serum (FBS: SIGMA 173012) and penicillin/streptomycin (FujiFilm-Wako Pure Chemical Industries) (hereunder referred to simply as “culture medium”). After adding 25 μL of HPAF-II cell suspension prepared to 3.2×10^4 cells/mL using culture medium into each well of a 384-well plate (Greiner 781091), the cells were cultured overnight in a 5% CO2 incubator (37° C.). On the following day, 25 μL of the test substance diluted with culture medium was added to each well, and culturing was continued for 5 days in a 5% CO2 incubator (37° C.). Next, 25 μL of CellTiter Glo™ 2.0 (Promega) was added to each well, and the plate contents were mixed for 5 minutes using a plate mixer. The plate was stationed for 10 minutes at room temperature while shielded from light, and then the luminous intensity was measured with an ENVISION′ (Perkin-Elmer). The luminescence value of the wells with addition of test substance was determined as a relative value, with 100% as the luminescence value of the wells with cells but without addition of the test substance and 0% as the luminescence value of the wells without cells. […]

[2] = molecular target: HiBiT tagged BRD4-BD1 protein in HEK293/LgBiT/hPGK/HiBiT-BRD4-BD1 cells (Homo sapiens, UniProt O60885); test: BET BD1 domain degradation assay; assay type: cell-based; parameters: HiBit-linker-BRD4 BD1(1-209); host or cells: HEK293 (ATCC CRL-1573) stably transduced with LgBiT and HiBiT-BRD4-BD1; settings: concentration for 50% reduction in HiBiT-BRD4-BD1 protein level, 3 hours, read-out: Absolute DC50—3 h (nM) HEK293_HiBiT-BRD4-BD1
Excerpt: HEK293/LgBiT/hPGK/HiBiT-BRD4-BD1 cells were established by introducing LgBiT and HiBiT-BRD4-BD1 into the human fetus renal cell line HEK293 (ATCC Number CRL-1573). LgBiT was introduced using lentivirus vector LV[Exp]-Bsd-EFS>{LgBiT}, and HiBiT-BRD4-BD1 was introduced with lentivirus vector LV[Exp]-Puro-hPGK>{HiBit-linker-BRD4 BD1(1-209)}. The vector plasmids LV[Exp]-Bsd-EFS>{LgBiT} and LV[Exp]-Puro-hPGK>{HiBit-linker-BRD4_BD1(1-209)} were constructed by VectorBuilder Co. The lentivirus was produced using a Mission Lentivirus Packaging Mix (Sigma) according to the manufacturer's protocol. Viral infection and drug selection of infected cells were carried out by the following published method (Akagi T. et. al, PNAS 2003; 100:13567-72). The cells were maintenance cultured in a 5% CO2 incubator (37° C.), using culture medium. A 45 μL portion of cell suspension of HEK293/LgBiT/hPGK/HiBiT-BRD4-BD1 cells prepared to 6.7×10^4 cells/mL using culture medium was added to each well of a collagen I-coated 384-well plate (Falcon 356667), and the cells were cultured overnight in a 5% CO2 incubator (37° C.). On the following day, 5 μL of test substance diluted with RPMI-1640 (FujiFilm-Wako Pure Chemical Industries) containing 10% fetal bovine serum (FBS: SIGMA 173012) and penicillin/streptomycin (FujiFilm-Wako Pure Chemical Industries) was added to each well, and culturing was continued for 3 hours in a 5% CO2 incubator (37° C.). The luminous intensity was measured using a Nono-Glo HiBiT Lytic Detection System (Promega), and the intracellular HiBiT tagged BRD4-BD1 protein level was calculated. After culturing, 25 μL of measuring reagent was added to each well and the plate contents were mixed for 5 minutes using a plate mixer. The plate was stationed for 10 minutes at room temperature while shielded from light, and then the luminous intensity was measured with an ENVISION′ (Perkin-Elmer). The luminescence value of the wells with addition of test substance was determined as a relative value, with 100% as the luminescence value of the wells with cells but without addition of the test substance, and 0% as the luminescence value of the wells without cells. A plot of test substance concentration against luminescence value % approximated a 4-parameter logistic curve, and the test substance concentration necessary for 50% reduction in protein level (Absolute DC50) was calculated and is shown in Table 4.

IC50 (AsPC-1/Cas9 cell line): 2.4 nM
IC50 [1]: 2.9 nM
DC50 [2]: > 100 nM
SMILES: COc1ccc(C#CCNC2(C)CCN(C3CCN(c4nc([C@@](CO)(OC5CC5)c5ccccc5)c5cc(-c6cn(C)c(=O)c7[nH]ccc67)ccc5n4)CC3)CC2)cc1N1CCC(=O)N(CNC(=O)[C@H](CC(N)=O)NC(C)=O)C1=O [Example 135, (S)-2-Acetamide-N1-((3-(5-(3-((1′-(4-((S)-1-cyclopropoxy-2-hydroxy-1-phenylethyl)-6-(6-methyl-7-oxo-6,7-dihydro-1H-pyrrolo[2,3-c]pyridin-4-yl)quinazolin-2-yl)-4-methyl-[1,4′-bipiperidin]-4-yl)amino)prop-1-yn-1-yl)-2-methoxyphenyl)-2,6-dioxotetrahydropyrimidine-1(2H)-yl)methyl)succinamide]

From patent publication US20240148895A1, “ANTIBODY-DRUG CONJUGATE” (Eisai R&D Management Co., Ltd., priority 2022, published 2024)
